Experimental data reported in US20260125346A1, “Isoquinolinone Derivatives and 4H-Quinolizinone Derivatives and Pharmaceutical Compositions Thereof for the Treatment of Disease” (BeOne Medicines I GmbH, priority 2023, published 2026).

Columns and labels:
[1] = target: PI3Kα (p110/p85) kinase (wild type, "WT") (Homo sapiens, UniProt P42336); experiment: PI3Kα (p110/p85) kinase ADP-Glo Assay; format: biochemical; settings: 25 uM ATP
Procedure: PI3Kα (p110/p85) kinase ADP-Glo Assay. Certain compounds disclosed herein were tested for inhibition of PI3Kα (p110/p85) kinase (wild type, “WT”) in assays based on the ADP-Glo™ Kinase Assay methodology. The assays were carried out in 384-well white plates in a reaction mixture containing PI3Kα (p110/p85) kinase, 25 µM ATP, 5.35 µg/mL PI(4,5)P2:PS Lipid Kinase Substrate and […] compound in buffer containing 50 mM HEPES pH7.5, 50 mM NaCl, 3 mM MgCl2, 0.0025% BSA and 2 mM DTT. PI3Kα (p110/p85) kinase was incubated with Lipid Kinase Substrate and compound for 30 minutes at room temperature and the reaction was initiated by the addition of ATP. After reaction at room temperature for 120 minutes, ADP-Glo™ reagents were added to terminate the kinase reaction and deplete the remaining ATP according to the manufacture's instruction (Promega Corporation). After incubation at room temperature for 1 hour, Kinase Detection Reagent (prepared by reconstituting the lyophilized Kinase Detection Substrate with Kinase Detection Buffer of the kit) was added to convert the ADP to ATP and to allow for the newly synthesized ATP to be measured using a luciferase/luciferin reaction. After incubation at room temperature for 0.5 hour, chemiluminescence signals were recorded on a PHERAstar FSX plate reader (BMG Labtech). The chemiluminescence generated in this assay correlates to the amount of ADP generated in the kinase assay, indicating kinase activity. […] The IC50 for each compound was derived from fitting the data to the four-parameter logistic equation by Dotmatics.

[2] = tested on: PI3Kα H1047R mutated cell line T-47D; experiment: Phospho-AKT (Ser473) Inhibition Assay (HTRF), T-47D; format: cell-based; settings: for IC50: Homo sapiens, T47D, T-47D, 1 hour treatment, read-out: p-AKT Inhibition assay (S473) IC50 T-47D; for Selectivity: SK-BR-3/T-47D (p-AKT): p-AKT (S473) IC50 ratio
Procedure: Cell Culture Maintenance. The T-47D (ATCC, HTB-133) cell line was obtained from the American Type Culture Collection. Cells were maintained in RPMI1640 medium (Gibco, REF #22400105) supplemented with 10% Fetal Bovine Serum (Gibco, REF #10091148). Cultures were maintained in a humidified incubator at 37° C. under 5% CO2/95% air.
Phospho-AKT Inhibition Assay. HTRF Phospho-AKT (Ser473) detection kit (Cisbio, REF #64AKSPEH) was used in phosphor-AKT inhibition assay. For compound screening, PI3Kα H1047R mutated cell line T-47D and WT cell line SK-BR-3 cells were seeded at a density of 3×10^4 cells per well in 96 well plate (Costar, REF #3599) in 95 μL of assay medium (MEM medium (Gibco, REF #12561-056) with 1×NEAA (Gibco, REF #11140-050), 1 mM sodium pyruvate (Gibco, REF #11360-070), and 1 g/ml human insulin (Topscience, REF #T8221)), overnight. Compounds dissolved in 10 mM stock solutions in DMSO were serially diluted 1:3 in DMSO to generate an 11-point dilution series and plated using an INTEGRA ASSIST PLUS pipetting robot. A 20× intermediate compound dilution plate in RPMI1640 medium (200 M starting compound concentration in 2% DMSO) was then prepared. Five μL of intermediate serially diluted compounds were added to the cell plate to final concentrations ranging from […] to 0.1 nM in 0.1% DMSO. 0.1% DMSO alone was used to establish the maximum signal and GDC0077 at final concentration of 10 μM was used as a reference compound for minimum signal. After 1 hour treatment, removed medium and added 50 μL of supplemented lysis buffer (1×) immediately. Incubated for at least 30 minutes at room temperature under shaking. Transferred 16 μL of cell lysate from the 96-well cell-culture plate to a 384-white detection plate (PerkinElmer, Optiplate 384, 6007299). Added 4 μL of premixed antibody solutions prepared in the detection buffer. Incubated 4 hours at room temperature in dark. The plates were read on PHERAstar FSX Microplate reader (BMG LABTECH, Inc.) using standard HTRF settings.
Relative IC50 values were determined using luminescence units by calculating percent inhibition with respect to the in-plate “MIN” (GDC0077 reference control) and “MAX” (DMSO) controls. The data were analyzed using a 4-parameter nonlinear logistic equation (four-parameter logistic concentration-response curve): Y=bottom+[(top−bottom)/1+(X/IC50) slope] • where Y=% inhibition, X=concentration of inhibitor, bottom=minimum value of y attained by curve-fit, top=maximum value of y attained by curve-fit and slope=steepness of curve at the IC50.

[3] = target: PI3Kα (p110[H1047R]/p85) kinase (Homo sapiens, UniProt P42336, H1047R); experiment: PI3Kα (p110[H1047R]/p85) kinase ADP-Glo Assay; format: biochemical; settings: 25 uM ATP; for selectivity: WT/H1047R: ADP-Glo Assay IC50 ratio
Procedure: PI3Kα (p110[H1047R]/p85) kinase ADP-Glo Assay. Certain compounds disclosed herein were tested for inhibition of PI3Kα (p110[H1047R]/p85) kinase in assays based on the ADP-Glo™ Kinase Assay methodology. The assays were carried out in 384-well white plates in a reaction mixture containing PI3Kα (p110[H1047R]/p85) kinase, 25 µM ATP, 5.35 µg/ml PI(4,5)P2:PS Lipid Kinase Substrate and […] compound in buffer containing 50 mM HEPES pH7.5, 50 mM NaCl, 3 mM MgCl2, 0.0025% BSA and 2 mM DTT. PI3Kα (p110[H1047R]/p85) kinase was incubated with Lipid Kinase Substrate and compound for 30 minutes at room temperature and the reaction was initiated by the addition of ATP.
After reaction at room temperature for 120 minutes, ADP-Glo™ reagents were added to terminate the kinase reaction and deplete the remaining ATP according to the manufacture's instruction (Promega Corporation). After incubation at room temperature for 1 hour, Kinase Detection Reagent (prepared by reconstituting the lyophilized Kinase Detection Substrate with Kinase Detection Buffer of the kit) was added to convert the ADP to ATP and to allow for the newly synthesized ATP to be measured using a luciferase/luciferin reaction. After incubation at room temperature for 0.5 hour, chemiluminescence signals were recorded on a PHERAstar FSX plate reader (BMG Labtech). The chemiluminescence generated in this assay correlates to the amount of ADP generated in the kinase assay, indicating kinase activity. […] The IC50 for each compound was derived from fitting the data to the four-parameter logistic equation by Dotmatics.

PI3Kα (p110/p85) kinase (wild type, "WT"), sequence (P42336 whole entry): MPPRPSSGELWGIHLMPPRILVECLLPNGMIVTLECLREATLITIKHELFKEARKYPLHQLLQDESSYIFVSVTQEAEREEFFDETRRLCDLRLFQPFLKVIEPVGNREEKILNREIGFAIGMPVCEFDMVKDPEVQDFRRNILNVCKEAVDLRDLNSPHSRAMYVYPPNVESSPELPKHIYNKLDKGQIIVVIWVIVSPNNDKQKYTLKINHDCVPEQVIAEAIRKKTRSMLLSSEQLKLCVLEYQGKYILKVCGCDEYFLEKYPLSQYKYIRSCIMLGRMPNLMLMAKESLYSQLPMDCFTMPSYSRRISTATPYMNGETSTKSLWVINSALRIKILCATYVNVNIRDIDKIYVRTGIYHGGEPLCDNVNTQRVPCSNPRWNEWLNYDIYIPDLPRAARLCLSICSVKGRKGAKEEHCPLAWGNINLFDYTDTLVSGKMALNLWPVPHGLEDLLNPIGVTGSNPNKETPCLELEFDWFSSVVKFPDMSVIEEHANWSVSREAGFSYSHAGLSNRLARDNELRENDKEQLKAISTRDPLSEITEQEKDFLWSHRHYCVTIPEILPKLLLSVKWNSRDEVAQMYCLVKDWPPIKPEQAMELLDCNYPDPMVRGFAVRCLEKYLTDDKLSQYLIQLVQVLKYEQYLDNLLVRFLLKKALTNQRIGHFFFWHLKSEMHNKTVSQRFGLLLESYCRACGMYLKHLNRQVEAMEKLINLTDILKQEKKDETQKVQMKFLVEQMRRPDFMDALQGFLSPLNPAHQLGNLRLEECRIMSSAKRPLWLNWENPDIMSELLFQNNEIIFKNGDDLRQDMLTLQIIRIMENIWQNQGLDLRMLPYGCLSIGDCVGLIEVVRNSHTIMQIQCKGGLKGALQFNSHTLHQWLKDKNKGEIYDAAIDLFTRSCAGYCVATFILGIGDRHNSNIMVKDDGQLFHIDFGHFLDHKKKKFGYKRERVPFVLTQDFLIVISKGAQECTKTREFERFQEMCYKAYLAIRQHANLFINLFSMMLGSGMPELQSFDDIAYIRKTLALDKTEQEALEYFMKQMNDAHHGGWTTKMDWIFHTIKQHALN
PI3Kα (p110/p85) kinase (wild type, "WT"), sequence (P27986 whole entry partner): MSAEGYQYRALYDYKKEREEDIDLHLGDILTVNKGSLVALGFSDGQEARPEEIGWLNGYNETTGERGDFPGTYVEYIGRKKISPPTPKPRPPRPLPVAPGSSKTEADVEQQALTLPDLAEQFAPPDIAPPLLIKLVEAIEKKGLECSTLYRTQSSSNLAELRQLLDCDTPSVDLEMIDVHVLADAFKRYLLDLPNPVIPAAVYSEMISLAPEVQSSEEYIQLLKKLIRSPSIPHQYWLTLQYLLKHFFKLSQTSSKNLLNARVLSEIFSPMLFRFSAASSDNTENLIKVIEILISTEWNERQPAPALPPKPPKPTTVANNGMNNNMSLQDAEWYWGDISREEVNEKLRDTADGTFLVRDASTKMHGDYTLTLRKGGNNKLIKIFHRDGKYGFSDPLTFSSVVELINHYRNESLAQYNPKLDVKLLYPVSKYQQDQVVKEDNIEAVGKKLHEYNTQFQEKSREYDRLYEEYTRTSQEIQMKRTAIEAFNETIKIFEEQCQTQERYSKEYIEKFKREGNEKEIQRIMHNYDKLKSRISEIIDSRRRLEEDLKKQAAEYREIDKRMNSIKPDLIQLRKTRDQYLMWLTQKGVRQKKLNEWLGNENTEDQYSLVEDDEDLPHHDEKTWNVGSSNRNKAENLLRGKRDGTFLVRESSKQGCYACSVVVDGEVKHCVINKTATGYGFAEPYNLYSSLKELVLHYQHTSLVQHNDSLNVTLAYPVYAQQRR
PI3Kα (p110[H1047R]/p85) kinase, sequence (P42336 whole entry H1047R): as the sequence (P42336 whole entry) above, with H1047R counted along it
PI3Kα (p110[H1047R]/p85) kinase, sequence (P27986 whole entry partner): as the sequence (P27986 whole entry partner) above

| IC50 [1] [µM] | IC50 [2] [µM] | IC50 [3] [µM] | selectivity: WT/H1047R [3] | Compound | Selectivity: SK-BR-3/T-47D (p-AKT) [2] |
| --- | --- | --- | --- | --- | --- |
| > 100 | 3.28 | 0.387 | >258 | Cc1cc(C(C)Nc2ccccc2C(=O)O)c2cc(C#Cc3cnn(-c4ccccc4)c3)n(C)c(=O)c2c1 (centres unmarked) [Example 94, 2-((1-(2,7-dimethyl-1-oxo-3-((1-phenyl-1H-pyrazol-4-yl)ethynyl)-1,2-dihydroisoquinolin-5-yl)ethyl)amino)benzoic acid] | >3.05 |
| 14.6 | 0.06 | 0.242 | 60.4 | Cc1cc(C(C)Nc2ccccc2C(=O)O)c2cc(-c3ccc(N4CCCC4)cc3)n(C)c(=O)c2c1 (centres unmarked) [Example 84, 2-((1-(2,7-dimethyl-1-oxo-3-(4-(pyrrolidin-1-yl)phenyl)-1,2-dihydroisoquinolin-5-yl)ethyl)amino)benzoic acid] | 52.0 |
| 6.84 | 0.184 | 0.158 | 43.3 | Cc1cc(C(C)Nc2ccccc2C(=O)O)c2cc(C#CC3(O)CCCC3)n(C)c(=O)c2c1 (centres unmarked) [Example 89, 2-((1-(3-((1-hydroxycyclopentyl)ethynyl)-2,7-dimethyl-1-oxo-1,2-dihydroisoquinolin-5-yl)ethyl)amino)benzoic acid] | 37.2 |
| 1.75 | 0.0685 | 0.152 | 11.5 | Cc1cc(C(C)Nc2ccccc2C(=O)O)c2cc(C#Cc3ccn(C)n3)n(C)c(=O)c2c1 (centres unmarked) [Example 88, 2-((1-(2,7-dimethyl-3-((1-methyl-1H-pyrazol-3-yl)ethynyl)-1-oxo-1,2-dihydroisoquinolin-5-yl)ethyl)amino)benzoic acid] | 28.3 |

The next lines start with the molecule.

| Compound | IC50 [1] [µM] | IC50 [2] [µM] | IC50 [3] [µM] | selectivity: WT/H1047R [3] | Selectivity: SK-BR-3/T-47D (p-AKT) [2] |
| --- | --- | --- | --- | --- | --- |
| Cc1cc(C(C)Nc2ccccc2C(=O)O)c2cc(-c3ccc(CN4CCOCC4)nc3)n(C)c(=O)c2c1 (centres unmarked) [Example 78, 2-((1-(2,7-dimethyl-3-(6-(morpholinomethyl)pyridin-3-yl)-1-oxo-1,2-dihydroisoquinolin-5-yl)ethyl)amino)benzoic acid] | 65.9 | 1.95 | 2.21 | 29.7 | >5.12 |
| Cc1cc(C(C)Nc2ccccc2C(=O)O)c2cc(-c3cnc(C(C)(C)O)nc3)n(C)c(=O)c2c1 (centres unmarked) [Example 66, 2-((1-(3-(2-(2-hydroxypropan-2-yl)pyrimidin-5-yl)-2,7-dimethyl-1-oxo-1,2-dihydroisoquinolin-5-yl)ethyl)amino)benzoic acid] | 21.5 | 2.8 | 1.11 | 19.3 | >3.57 |
| Cc1cc([C@@H](C)Nc2ccccc2C(=O)O)c2cc(-c3ccc(F)cc3)n(CC#N)c(=O)c2c1 [Example 64, (R)-2-((1-(2-(cyanomethyl)-3-(4-fluorophenyl)-7-methyl-1-oxo-1,2-dihydroisoquinolin-5-yl)ethyl)amino)benzoic acid] | 2.48 | 0.0324 | 0.113 | 21.9 | >308 |
| Cc1cc([C@H](C)Nc2ccccc2C(=O)O)c2cc(-c3ccc(C(C)(C)O)nc3)n(C)c(=O)c2c1 [Example 57, (S)-2-((1-(3-(6-(2-hydroxypropan-2-yl)pyridin-3-yl)-2,7-dimethyl-1-oxo-1,2-dihydroisoquinolin-5-yl)ethyl)amino)benzoic acid] | 88.4 | > 10 | > 100 | <0.9 |  |
| Cc1cc([C@H](C)Nc2ccccc2C(=O)O)c2cc(-c3ccc(F)cc3)n(C)c(=O)c2c1 [Example 35, (S)-2-((1-(3-(4-fluorophenyl)-2,7-dimethyl-1-oxo-1,2-dihydroisoquinolin-5-yl)ethyl)amino)benzoic acid] | > 100 | > 10 | > 100 |  |  |
| Cc1cc(C(C)Nc2ccccc2C(=O)O)c2cc(-c3cccc(C(F)(F)F)c3)n(C)c(=O)c2c1 (centres unmarked) [Example 50, 2-((1-(2,7-dimethyl-1-oxo-3-(3-(trifluoromethyl)phenyl)-1,2-dihydroisoquinolin-5-yl)ethyl)amino)benzoic acid] | 10.4 | 0.0866 | 0.376 | 27.6 | 79.1 |
| Cc1cc(C(C)Nc2ccccc2C(=O)O)c2cc(-c3ccc(F)cc3)n(C3CCOC3)c(=O)c2c1 (centres unmarked) [Example 69, 2-((1-(3-(4-fluorophenyl)-7-methyl-1-oxo-2-(tetrahydrofuran-3-yl)-1,2-dihydroisoquinolin-5-yl)ethyl)amino)benzoic acid] | 18.8 | 0.103 | 0.416 | 45.3 | >97 |
| Cc1cc([C@@H](C)Nc2ccccc2C(=O)O)c2cc(-c3ccc(C(C)(C)O)nc3)n(C)c(=O)c2c1 [Example 56, (R)-2-((1-(3-(6-(2-hydroxypropan-2-yl)pyridin-3-yl)-2,7-dimethyl-1-oxo-1,2-dihydroisoquinolin-5-yl)ethyl)amino)benzoic acid] | 17.1 | 0.512 | 1.05 | 16.3 | >19.55 |
| Cc1cc(C(C)Nc2ccccc2C(=O)O)c2cc(-c3ccc4c(c3)C(=O)N(C)C4)n(C)c(=O)c2c1 (centres unmarked) [Example 75, 2-((1-(2,7-dimethyl-3-(2-methyl-3-oxoisoindolin-5-yl)-1-oxo-1,2-dihydroisoquinolin-5-yl)ethyl)amino)benzoic acid] | 31.4 | 0.547 | 0.974 | 32.3 | >18.29 |
